Test results published in patent US9238039B2, “Pyrazolo[1,5-A]pyrimidines for antiviral treatment” (Gilead Sciences, Inc., priority 2010, dated 2016).

System: RSV strain A2
Test: RSV antiviral cytoprotection assay in Hep2 cells (96-well and 384-well format, Cell TiterGlo read-out)
Format: cell-based, Respiratory Syncytial Virus (RSV)
Conditions: human respiratory syncytial virus; for inhibition at 0.5 µM: HEp-2, 0.5 uM; for EC50: HEp-2, RSV-induced cytopathic effects, Hep2 cells, class symbols
[1] = RSV-induced cytopathic effect in Hep2 cells, calculated from fitted dose response curve, normalized to 0% and 100%

EC50 [nM]	SMILES	inhibition at 0.5 µM [1] [%]	inhibition at 1 µM (HEp-2, 1 uM, RSV-induced cytopathic effect in Hep2 cells, calculated from fitted dose response curve, normalized to 0% and 100%) [%]
0.1 to 100	Cc1nc2cc([C@@H]3CCCCN3C(=O)c3cc(Cl)ccc3NS(C)(=O)=O)nn2c(N(C)C)c1C [Compound 99]	99	–
0.1 to 100	Cc1ccc(C)c(C(=O)N2CCCC[C@H]2c2cc3nc(N4CC[C@H](N)C4)c(C)cn3n2)c1 [Compound 161]	100	–
0.1 to 100	Cc1cn2nc([C@@H]3CCCCN3C(=O)c3csc4c3CCCC4)cc2nc1N1CC[C@H](N)C1 [Compound 369]	91	–
0.1 to 100	CC(=O)Nc1ccc(Cl)cc1C(=O)N1CCCC[C@H]1c1cc2nc(N3CC[C@H](N)C3)c(C)cn2n1 [Compound 223]	100	–
0.1 to 100	Cc1cn2nc([C@@H]3CCCCN3C(=O)c3ccc4ncsc4c3)cc2nc1N1CC[C@H](N)C1 [Compound 361]	88	–
0.1 to 100	CNC(=O)c1cc(C(=O)N2CCCC[C@H]2c2cc3nc(N4CC[C@H](N)C4)c(C)cn3n2)n(C)n1 [Compound 371]	100	–
0.1 to 100	Cc1cn2nc([C@@H]3CCCCN3C(=O)c3cnccn3)cc2nc1N1CC[C@H](N)C1 [Compound 260]	99	–
0.1 to 100	Cc1ccc(NS(C)(=O)=O)c(C(=O)N2CCCC[C@H]2c2cc3nc(C)c(C)c(C#N)n3n2)c1 [Compound 103]	98	–
101 to 1000	Cc1cn2nc([C@@H]3CCCCN3C(=O)c3cc(-c4ccco4)n[nH]3)cc2nc1N1CC[C@H](N)C1 [Compound 360]	66	–
0.1 to 100	Cc1cn2nc([C@@H]3CCCCN3C(=O)c3cc(Cl)ccc3NS(C)(=O)=O)cc2nc1N1CC[C@@H](CN)C1 [Compound 151]	99	–
0.1 to 100	C#Cc1cccc(C(=O)N2CCCC[C@H]2c2cc3nc(N4CC[C@H](N)C4)c(C)cn3n2)c1 [Compound 289]	100	–
101 to 1000	Cc1ccc(C(=O)N2CCCC[C@H]2c2cc3nc(N4CC[C@H](N)C4)c(C)cn3n2)c(O)c1 [Compound 293]	64	–
101 to 1000	Cc1cn2nc([C@@H]3CCCCN3C(=O)c3nccs3)cc2nc1N1CC[C@H](N)C1 [Compound 268]	76	–
0.1 to 100	Cc1cn2nc([C@@H]3CCCCN3C(=O)c3cccc(F)c3F)cc2nc1N1CC[C@H](N)C1 [Compound 307]	100	–

Further lines, the compound ahead of its results:

SMILES	EC50 [nM]	inhibition at 0.5 µM [1] [%]	inhibition at 1 µM (HEp-2, 1 uM, RSV-induced cytopathic effect in Hep2 cells, calculated from fitted dose response curve, normalized to 0% and 100%) [%]
Cc1cc(N2CC(F)C2)nc2cc([C@@H]3CCCCN3C(=O)c3cc(Cl)ccc3NS(C)(=O)=O)nn12 [Compound 47]	0.1 to 100	100	–
Cc1cn2nc([C@@H]3CCCCN3C(=O)c3cncnc3N)cc2nc1N1CC[C@H](N)C1 [Compound 276]	101 to 1000	90	–
CCCn1nc(C)cc1C(=O)N1CCCC[C@H]1c1cc2nc(N3CC[C@H](N)C3)c(C)cn2n1 [Compound 329]	0.1 to 100	98	–
Cc1cn2nc([C@@H]3CCCCN3C(=O)c3cc(Cl)ccc3NS(C)(=O)=O)cc2nc1N1C[C@@H](N)C2(CC2)C1 [Compound 201]	101 to 1000	64	–
Cc1cn2nc([C@@H]3CCCCN3C(=O)c3cc(Cl)ccc3NS(C)(=O)=O)cc2nc1N1C[C@@H](N)C[C@H]1CO [Compound 211]	0.1 to 100	100	–
CN1CCN(c2cc(N3CC(O)C3)nc3cc([C@@H]4CCCCN4C(=O)c4cc(Cl)ccc4NS(C)(=O)=O)nn23)CC1 [Compound 54]	0.1 to 100	100	–
CC(=O)Nc1ccc(C)cc1C(=O)N1CCCC[C@H]1c1cc2nc(N3CC[C@H](N)C3)c(C)cn2n1 [Compound 169]	0.1 to 100	100	–
CC(=O)Nc1ccc(F)cc1C(=O)N1CCCC[C@H]1c1cc2[nH]c(C)c(C)c(=O)n2n1 [Compound 16]	0.1 to 100	89	97
Cc1ccc(NS(C)(=O)=O)c(C(=O)N2CCCC[C@H]2c2cc3nc(C)c(C)c(NC4CC4)n3n2)c1 [Compound 102]	0.1 to 100	98	–
